In US10399940B2, “Substituted pyrrolidines and methods of use” (AbbVie S.à.r.l., priority 2016, dated 2019):
pEC50: −log10 of the molar value. Like-named read-outs stand apart in the source and are kept apart here.

Target: T1, F508delCFTR (Homo sapiens, UniProt P13569, DEL508-508)
T1 construct: expressed in transfected cells; host or cells: CFBE41o- (human lung derived epithelial cell line), doxycycline-inducible expression
Experiment: Cell Surface Expression-Horse Radish Peroxidase (CSE-HRP) assay
Type: cell-based
Details: CFBE41o-F508delCFTR-HRP cells; for Maximum % activity (with co-corrector): with co-corrector (2 μM); for Maximum % activity (with co-corrector) / Maximum % activity (without co-corrector): normalized to on-plate positive control, highest concentration 20 μM
How it was run: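 Surface F508delCFTR-HRP was read by luminol luminescence after 18–24 h compound exposure at 33 °C, without or with 2 μM co-corrector. Doses were eight 3-fold steps from 20 μM, in doxycycline-induced (0.5 μg/mL, 72 h) CFBE41o- cells. % activity was scaled to the on-plate 2 μM positive control minus DMSO; EC50 came from a variable-slope sigmoid fit.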

[1] = test compound without co-corrector, 18-24 hours at 33° C., read-out: EC50 (without co-corrector)
[2] = with co-corrector (2 μM of 3-[(2R,4R)-4-({[1-(2,2-difluoro-1,3-benzodioxol-5-yl)cyclopropyl]carbonyl}amino)-7-methoxy-3,4-dihydro-2H-chromen-2-yl]benzoic acid), read-out: EC50 (with co-corrector)

T1 sequence (P13569 with tags, fused parts or gaps DEL508-508): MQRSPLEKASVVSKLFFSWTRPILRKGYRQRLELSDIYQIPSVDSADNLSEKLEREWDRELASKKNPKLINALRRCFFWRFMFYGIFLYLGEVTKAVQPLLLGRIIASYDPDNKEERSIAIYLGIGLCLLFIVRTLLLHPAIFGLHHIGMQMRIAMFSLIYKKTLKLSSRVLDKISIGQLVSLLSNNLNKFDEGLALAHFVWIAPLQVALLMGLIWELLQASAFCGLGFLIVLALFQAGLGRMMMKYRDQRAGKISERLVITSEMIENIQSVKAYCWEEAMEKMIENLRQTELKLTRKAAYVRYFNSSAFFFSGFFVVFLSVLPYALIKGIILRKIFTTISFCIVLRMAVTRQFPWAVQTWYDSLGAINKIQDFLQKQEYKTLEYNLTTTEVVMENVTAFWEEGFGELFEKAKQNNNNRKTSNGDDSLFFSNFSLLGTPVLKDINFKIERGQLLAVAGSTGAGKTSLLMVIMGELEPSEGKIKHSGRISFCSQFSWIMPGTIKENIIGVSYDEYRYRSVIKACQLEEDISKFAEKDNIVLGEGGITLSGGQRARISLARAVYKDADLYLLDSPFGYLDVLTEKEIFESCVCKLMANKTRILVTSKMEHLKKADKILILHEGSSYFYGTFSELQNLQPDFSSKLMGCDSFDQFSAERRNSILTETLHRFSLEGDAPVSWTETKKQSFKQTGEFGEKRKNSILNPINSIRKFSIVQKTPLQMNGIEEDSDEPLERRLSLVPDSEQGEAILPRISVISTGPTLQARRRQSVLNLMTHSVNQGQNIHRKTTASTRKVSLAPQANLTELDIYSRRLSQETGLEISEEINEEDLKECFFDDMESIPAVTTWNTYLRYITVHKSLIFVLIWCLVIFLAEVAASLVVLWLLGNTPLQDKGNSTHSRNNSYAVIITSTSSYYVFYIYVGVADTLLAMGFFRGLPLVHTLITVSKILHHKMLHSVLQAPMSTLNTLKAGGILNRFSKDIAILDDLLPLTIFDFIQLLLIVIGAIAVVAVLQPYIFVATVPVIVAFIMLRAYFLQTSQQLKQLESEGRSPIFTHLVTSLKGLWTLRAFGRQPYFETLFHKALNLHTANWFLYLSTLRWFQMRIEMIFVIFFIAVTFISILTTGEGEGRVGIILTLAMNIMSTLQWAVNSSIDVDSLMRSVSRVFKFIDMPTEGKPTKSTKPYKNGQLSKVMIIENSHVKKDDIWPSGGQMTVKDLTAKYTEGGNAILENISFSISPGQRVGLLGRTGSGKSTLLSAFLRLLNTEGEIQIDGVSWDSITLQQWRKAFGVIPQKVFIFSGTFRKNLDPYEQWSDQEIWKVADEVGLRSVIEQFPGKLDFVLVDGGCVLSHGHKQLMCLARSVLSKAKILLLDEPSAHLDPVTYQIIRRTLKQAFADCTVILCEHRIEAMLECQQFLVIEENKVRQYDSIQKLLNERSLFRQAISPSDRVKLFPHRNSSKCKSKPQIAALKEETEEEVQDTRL

| SMILES | pEC50 [1] | pEC50 [2] | Maximum % activity (with co-corrector) | Maximum % activity (without co-corrector) |
| --- | --- | --- | --- | --- |
| COc1ncc(C(F)(F)F)cc1CO[C@H]1[C@H](C(C)(C)C)[C@@H](C(=O)O)N(C(=O)OC(C)C)[C@H]1c1ccccc1C1CC1 [Example 92, (2S,3R,4S,5S)-3-tert-butyl-5-(2-cyclopropylphenyl)-4-{[2-methoxy-5-(trifluoromethyl)pyridin-3-yl]methoxy}-1-{[(propan-2-yl)oxy]carbonyl}pyrrolidine-2-carboxylic acid] | 5.00 to 6.00 | 5.00 to 6.00 | +++ (≥350) | ++ (≥100 and <200) |
| COc1ncc(C2CCC2)cc1CO[C@H]1[C@H](C(C)(C)C)[C@@H](C(=O)O)N(C(=O)OC(C)C)[C@H]1c1ccccc1C(C)C [Example 93, (2S,3R,4S,5S)-3-tert-butyl-4-[(5-cyclobutyl-2-methoxypyridin-3-yl)methoxy]-1-{[(propan-2-yl)oxy]carbonyl}-5-[2-(propan-2-yl)phenyl]pyrrolidine-2-carboxylic acid] | 5.00 to 6.00 | 5.00 to 6.00 | +++ (≥350) | ++ (≥100 and <200) |
| COc1ccc(C(F)(F)F)cc1CO[C@@H]1[C@H](C(C)(C)C)[C@@H](C(=O)O)N(C(=O)OC(C)C)[C@H]1c1cccnc1OC(C)C [Example 94, (2S,3R,4R,5S)-3-tert-butyl-4-{[2-methoxy-5-(trifluoromethyl)phenyl]methoxy}-1-{[(propan-2-yl)oxy]carbonyl}-5-{2-[(propan-2-yl)oxy]pyridin-3-yl}pyrrolidine-2-carboxylic acid] | < 5.00 | > 6.00 | + (<150) | + (<100) |
| COc1ncc(C2CCC2)cc1CO[C@H]1[C@H](C(C)(C)C)[C@@H](C(=O)O)N(C(=O)OC(C)C)[C@H]1c1cccnc1OC(C)C [Example 95, (2S,3R,4S,5S)-3-tert-butyl-4-[(5-cyclobutyl-2-methoxypyridin-3-yl)methoxy]-1-{[(propan-2-yl)oxy]carbonyl}-5-{2-[(propan-2-yl)oxy]pyridin-3-yl}pyrrolidine-2-carboxylic acid] | 5.00 to 6.00 | > 6.00 | +++ (≥350) | ++ (≥100 and <200) |
| COc1ncc(C(F)(F)F)cc1CO[C@H]1[C@H](C(C)(C)C)[C@@H](C(=O)O)N(C(=O)[C@H]2CCCCO2)[C@H]1c1ccccc1C(C)C [Example 97, (2S,3R,4S,5S)-3-tert-butyl-4-{[2-methoxy-5-(trifluoromethyl)pyridin-3-yl]methoxy}-1-[(2R)-oxane-2-carbonyl]-5-[2-(propan-2-yl)phenyl]pyrrolidine-2-carboxylic acid] | 5.00 to 6.00 | 5.00 to 6.00 | +++ (≥350) | ++ (≥100 and <200) |

Continued, values first:

| pEC50 [1] | pEC50 [2] | Maximum % activity (with co-corrector) | Maximum % activity (without co-corrector) | SMILES |
| --- | --- | --- | --- | --- |
| > 6.00 | > 6.00 | +++ (≥350) | +++ (≥200) | COc1ncc(C(F)(F)F)cc1CO[C@H]1[C@H](C(C)(C)C)[C@@H](C(=O)O)N(C(=O)[C@@H]2CCCCO2)[C@H]1c1ccccc1C(C)C [Example 96, (2S,3R,4S,5S)-3-tert-butyl-4-{[2-methoxy-5-(trifluoromethyl)pyridin-3-yl]methoxy}-1-[(2S)-oxane-2-carbonyl]-5-[2-(propan-2-yl)phenyl]pyrrolidine-2-carboxylic acid] |
| > 6.00 | > 6.00 | +++ (≥350) | ++ (≥100 and <200) | COc1ncc(C(F)(F)F)cc1CO[C@H]1[C@H](C(C)(C)C)[C@@H](C(=O)O)N(C(=O)[C@@H]2CCCO2)[C@H]1c1ccccc1C(C)C [Example 98, (2S,3R,4S,5S)-3-tert-butyl-4-{[2-methoxy-5-(trifluoromethyl)pyridin-3-yl]methoxy}-1-[(2S)-oxolane-2-carbonyl]-5-[2-(propan-2-yl)phenyl]pyrrolidine-2-carboxylic acid] |
